pKi: −log10 of the molar value.
Target: T1, Porcine pancreatic α-amylase (Sus scrofa, UniProt P00690)
T1 construct: purchased Sigma-Aldrich (Milan, Italy)
T1 sequence (P00690 16-511): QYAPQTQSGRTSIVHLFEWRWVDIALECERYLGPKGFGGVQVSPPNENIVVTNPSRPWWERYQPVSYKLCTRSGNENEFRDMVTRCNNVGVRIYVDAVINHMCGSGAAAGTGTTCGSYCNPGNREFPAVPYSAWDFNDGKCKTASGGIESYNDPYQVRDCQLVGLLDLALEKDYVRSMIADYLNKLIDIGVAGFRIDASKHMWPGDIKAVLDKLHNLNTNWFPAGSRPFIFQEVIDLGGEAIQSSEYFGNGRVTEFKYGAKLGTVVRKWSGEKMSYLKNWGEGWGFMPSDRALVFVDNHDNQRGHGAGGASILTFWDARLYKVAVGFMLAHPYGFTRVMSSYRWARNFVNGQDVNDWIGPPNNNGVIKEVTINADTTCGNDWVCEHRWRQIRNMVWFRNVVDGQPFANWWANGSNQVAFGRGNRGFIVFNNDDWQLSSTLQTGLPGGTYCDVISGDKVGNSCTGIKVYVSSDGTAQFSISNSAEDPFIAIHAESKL
Experiment: Pancreatic α-amylase inhibition (modified K-AMYLSD kit, p-nitrophenyl-α-D-maltoheptaoside substrate)
Assay type: biochemical
Details: for inhibition at 10000 µM: 10 mM final concentration; for Hill cooperativity coefficient (n^H) / pKi: three-parameter Hill equation fit, inhibitor zero to 0.1 mM; for pKi: read-out: Ki^app
Experimental: The monomeric and dimeric stilbenoids described above were tested for their ability to inhibit the enzyme α-amylase, using acarbose as a reference compound. The method used to evaluate the enzyme activity relies on a two-step procedure. In a first step, α-amylase acts on a modified p-nitrophenyl-α-D-maltoheptaoside, releasing products that may be hydrolyzed by an excess α-glucosidase present in the assay mixture, therefore allowing spectrophotometric quantitation of the released p-nitrophenolate anion.
Porcine pancreatic α-amylase [EC 3.2.1.1] was from Sigma-Aldrich (Milan, Italy). Activity was monitored by using the K-AMYLSD kit from Megazyme (Bray, Ireland), with modifications. An aliquot of α-amylase (0.03 mL, 0.1 μM in 50 mM phosphate buffer, pH 6.8) was added to 0.120 mL of 50 mM phosphate buffer, pH 6.8, in a microtiter plate well. The investigated compounds where then added as methanolic solutions (0.03 mL) of appropriate concentration. The reaction was started by adding 0.02 mL of the substrate solution provided with the kit, resulting in a final concentration of 0.4 μM substrate. The kit-provided substrate solution also contained an excess of thermostable bacterial α-glucosidase, that is required for the release of the p-nitrophenolate anion from the p-nitrophenyl glucosides produced by the activity of α-amylase on the chemically modified maltoheptaoside. At appropriate times, the reaction was stopped by adding 0.1 mL of 0.2 M Na2CO3, and the absorbance was read in a microplate reader set at 405 nm. Blanks were prepared in the absence of the pancreatic α-amylase. […] Acarbose (from a stock solution in methanol) was used as the reference inhibitor. A minimum of three independent replications was carried out for each assay.

inhibition at 10000 µM (versus controls with 15% MeOH) [%]	SMILES	other results
21 to 45	Oc1ccc([C@@H]2c3c(O)cc(O)cc3[C@H]3[C@H](c4ccc(O)cc4)c4c(O)cc(O)cc4[C@@H]23)cc1 [compound 7, pallidol]	–
~90	Oc1ccc(C=Cc2cc(O)cc3c2C(c2cc(O)cc(O)c2)C(c2ccc(O)cc2)O3)cc1 (stereo not drawn) [compound 6, Trans-ε-viniferin]	–
~90	Oc1ccc(C2Oc3ccc(C=Cc4cc(O)cc(O)c4)cc3C2c2cc(O)cc(O)c2)cc1 (stereo not drawn) [compound 5, Trans-δ-viniferin]	–
–	C[C@H]1O[C@H](O[C@H]2[C@H](O)[C@@H](O)[C@@H](O[C@H]3[C@H](O)[C@@H](O)C(O)O[C@@H]3CO)O[C@@H]2CO)[C@H](O)[C@@H](O)[C@@H]1N[C@H]1C=C(CO)[C@@H](O)[C@H](O)[C@H]1O (stereo partly shown) [acarbose, reference compound]	inhibition at 1000 µM (1 mM final concentration, versus controls with 15% MeOH): 86%
21	COc1cc(/C=C/c2ccc(O)cc2)cc(OC)c1 [compound 2, pterostilbene]	–
–	Oc1ccc([C@@H]2Oc3ccc(/C=C/c4cc(O)cc(O)c4)cc3[C@H]2c2cc(O)cc(O)c2)cc1 [(R, R)-trans-δ-viniferin]	Hill cooperativity coefficient (n^H): 1.5; pKi: 4.37
28	COc1cc(/C=C/c2ccc3c(c2)[C@@H](c2cc(OC)cc(OC)c2)[C@H](c2ccc(O)cc2)O3)cc(OC)c1 (relative stereo) [compound 8, pterostilbene-trans-dihydrodimer]	–
–	Oc1ccc([C@H]2Oc3ccc(/C=C/c4cc(O)cc(O)c4)cc3[C@@H]2c2cc(O)cc(O)c2)cc1 [(S, S)-trans-δ-viniferin]	Hill cooperativity coefficient (n^H): four; pKi: 4.24

Source: paper PMC6766848, “Inhibition of Pancreatic α-amylase by Resveratrol Derivatives: Biological Activity and Molecular Modelling Evidence for Cooperativity between Viniferin Enantiomers” (Molecules, 2019)
